Laboratory results: ChEMBL document CHEMBL1201862, “PubChem BioAssay data set” (2004)
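Values below derive from 48-hour exposures of cells grown in 96-well plates, with endpoints linearly interpolated between the two concentrations bracketing the appropriate inhibition level. GI50 marks 50% less growth.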 Active and inactive are the calls of the source. No stated cut-off is given here; in the data, active = GI50 up to about 1.1 µM and inactive = higher.

How the values were obtained:
Experiment in all cases: NCI-60 cell line screen, 48 h
[1] = tested on: MOLT-4
[2] = tested on: SF-295
[3] = tested on: Hs-578T
[4] = tested on: OVCAR-4
[5] = tested on: OVCAR-5
[6] = tested on: CCRF-CEM
[7] = tested on: SR
[8] = tested on: COLO 205
[9] = tested on: RPMI-8226
[10] = tested on: BT-549
[11] = tested on: Malme-3M
[12] = tested on: PC-3
[13] = tested on: OVCAR-3
[14] = tested on: UACC-257
[15] = tested on: T47D
[16] = tested on: CAKI-1
[17] = tested on: K562
[18] = tested on: SNB-19
[19] = tested on: TK-10

Measured: GI50

COc1cc(CCN)c(OC)c(OC)c1
inactive: [1] > 100 µM | [2] > 100 µM | [3] > 100 µM | [4] > 100 µM | [5] > 100 µM | [6] 34.8 µM | [7] 50.8 µM | [8] > 100 µM | [9] 93.3 µM | [10] > 100 µM | [11] > 100 µM | [12] > 100 µM | [13] > 100 µM | [14] > 100 µM | [15] > 100 µM | [16] > 100 µM | [17] 62.1 µM | [18] > 100 µM | [19] > 100 µM

CC12CCCC3(CC(=O)C(C)(C)C3C(=O)C1)C2 (stereo not drawn)
inactive: [1] > 100 µM | [2] > 100 µM | [3] > 100 µM | [4] > 100 µM | [5] > 100 µM | [6] > 100 µM | [7] > 100 µM | [8] > 100 µM | [9] > 100 µM | [10] > 100 µM | [11] > 100 µM | [12] > 100 µM | [13] > 100 µM | [14] > 100 µM | [15] > 100 µM | [16] > 100 µM | [17] > 100 µM | [18] > 100 µM | [19] > 100 µM

Cc1nn(C(=O)c2ccncc2)c2c1C(c1ccccc1)SC(=N)N2 (stereo not drawn)
inactive: [1] > 10 µM | [2] > 10 µM | [3] > 10 µM | [4] > 10 µM | [5] > 10 µM | [6] > 10 µM | [7] > 10 µM | [8] > 10 µM | [9] > 10 µM | [10] > 10 µM | [11] > 10 µM | [12] > 10 µM | [13] > 10 µM | [14] > 10 µM | [15] > 10 µM | [16] > 10 µM | [17] > 10 µM | [18] > 10 µM | [19] > 10 µM

COc1ccc2c(c1OC)C(=O)N/C2=C\c1c(CCN(C)C)cc2c(c1OC)OCO2
inactive: [1] > 100 µM | [2] 43.7 µM | [3] 13.6 µM | [4] > 100 µM | [5] > 100 µM | [6] > 100 µM | [7] > 100 µM | [8] 46.2 µM | [9] > 100 µM | [10] > 100 µM | [11] 62.8 µM | [12] > 100 µM | [13] > 100 µM | [14] 51.2 µM | [15] 27.9 µM | [17] 68.7 µM | [18] > 100 µM | [19] > 100 µM

CN1CCN(CCCCN2c3ccccc3Sc3ccc(C(=O)c4ccccc4)cc32)CC1
inactive: [1] 1.71 µM | [2] 1.8 µM | [3] 1.58 µM | [4] 2.08 µM | [5] 2.84 µM | [6] 1.64 µM | [7] 1.41 µM | [8] 1.75 µM | [9] 1.79 µM | [10] 1.65 µM | [11] 2.34 µM | [12] 1.5 µM | [13] 1.66 µM | [14] 1.75 µM | [15] 5.65 µM | [16] 1.44 µM | [17] 1.48 µM | [18] 1.91 µM | [19] 1.67 µM

CCOC(=O)C(NC(=O)c1ccccc1)(Nc1ccc(S(=O)(=O)Nc2ncccn2)cc1)C(F)(F)F (stereo not drawn)
inactive: [1] > 100 µM | [2] > 100 µM | [3] > 100 µM | [4] > 100 µM | [5] > 100 µM | [6] > 100 µM | [7] > 100 µM | [8] > 100 µM | [9] > 100 µM | [10] > 100 µM | [11] > 100 µM | [12] > 100 µM | [13] > 100 µM | [14] > 100 µM | [15] > 100 µM | [16] > 100 µM | [17] > 100 µM | [18] > 100 µM | [19] > 100 µM

O=C1/C(=C\c2ccc(-c3ccc(Cl)cc3Cl)o2)SC2NC(COc3ccc(Cl)cc3)=NN12 (stereo not drawn)
inactive: [1] 31.8 µM | [2] 45.3 µM | [3] 25.5 µM | [4] 45.3 µM | [5] > 100 µM | [6] 16 µM | [7] 33.3 µM | [8] 41.5 µM | [9] 38.4 µM | [10] 47 µM | [11] 42.2 µM | [12] 64.7 µM | [13] 36 µM | [14] 21.1 µM | [15] 27.2 µM | [16] 51.1 µM | [17] 48.9 µM | [18] 53.7 µM | [19] 2.96 µM

CCC(=O)N1C(=O)C(CC)(CC)C(=O)N1C(=O)CC
inactive: [1] > 100 µM | [2] > 100 µM | [3] > 100 µM | [4] > 100 µM | [5] > 100 µM | [6] > 100 µM | [7] > 100 µM | [8] > 100 µM | [9] > 100 µM | [10] > 100 µM | [11] > 100 µM | [12] > 100 µM | [13] > 100 µM | [14] > 100 µM | [15] > 100 µM | [16] > 100 µM | [17] > 100 µM | [18] > 100 µM | [19] > 100 µM

COc1ccc(-c2cc(C3CC3)nc(SCC(=O)O)c2C#N)cc1
inactive: [1] 60.3 µM | [2] 60.3 µM | [3] 84.3 µM | [4] 79.8 µM | [5] > 100 µM | [6] 57.8 µM | [7] 55.8 µM | [8] > 100 µM | [9] 35.6 µM | [10] > 100 µM | [12] 79.8 µM | [13] 83.2 µM | [14] > 100 µM | [15] > 100 µM | [16] > 100 µM | [17] 64.3 µM | [18] > 100 µM | [19] > 100 µM

S=C(S)N1CCN(c2cccc(Cl)c2)CC1
inactive: [1] 78.3 µM | [2] > 100 µM | [3] > 100 µM | [5] > 100 µM | [6] 34.9 µM | [7] 39.4 µM | [8] 76.4 µM | [9] 47.4 µM | [10] 86.5 µM | [11] > 100 µM | [12] 66.8 µM | [13] > 100 µM | [14] 85.1 µM | [15] 34.6 µM | [16] 42.1 µM | [17] 48.9 µM | [18] > 100 µM | [19] > 100 µM

CN(/N=C/c1ccccn1)C1=NCCN1
inactive: [1] > 100 µM | [2] > 100 µM | [3] > 100 µM | [4] > 100 µM | [5] > 100 µM | [6] > 100 µM | [7] > 100 µM | [8] > 100 µM | [9] > 100 µM | [10] > 100 µM | [11] > 100 µM | [12] > 100 µM | [13] > 100 µM | [14] > 100 µM | [15] > 100 µM | [16] > 100 µM | [17] > 100 µM | [18] > 100 µM

Cc1ccc(C(=O)C#Cc2cn(C3CC(O)C(CO)O3)c(=O)[nH]c2=O)cc1 (stereo not drawn)
inactive: [2] > 100 µM | [3] 95.1 µM | [4] 95.9 µM | [7] 35.2 µM | [8] 38.6 µM | [9] 67.8 µM | [10] > 100 µM | [11] 15.4 µM | [12] > 100 µM | [13] 26.2 µM | [14] > 100 µM | [15] 23.6 µM | [16] 90.2 µM | [18] > 100 µM | [19] > 100 µM

COc1ccc(NC(=O)CC(=O)N2N=C(C)C(/N=N\c3ccc(S(=O)(=O)c4ccc(/N=N/C5C(=O)N(C(=O)CC(=O)Nc6ccc(OC)cc6)N=C5C)cc4)cc3)C2=O)cc1 (stereo not drawn)
inactive: [1] > 100 µM | [2] > 100 µM | [3] 25 µM | [4] > 100 µM | [6] > 100 µM | [7] > 100 µM | [8] > 100 µM | [9] > 100 µM | [10] > 100 µM | [11] > 100 µM | [12] > 100 µM | [13] > 100 µM | [14] > 100 µM | [15] > 100 µM | [16] > 100 µM | [17] 50 µM | [18] > 100 µM | [19] > 100 µM

C=C1CC[C@@H]2C13[C@@H]1[C@H](CC(=O)[C@@]23C)C1(C)C (stereo partly drawn)
inactive: [1] > 100 µM | [2] 82 µM | [3] > 100 µM | [4] 15.5 µM | [5] > 100 µM | [7] 11.7 µM | [8] 84.5 µM | [9] > 100 µM | [10] > 100 µM | [11] > 100 µM | [12] > 100 µM | [13] 21.6 µM | [14] > 100 µM | [15] 55.8 µM | [16] > 100 µM | [17] 81.5 µM | [19] 33.7 µM

COCCn1cnc2c(Cl)nc(Nc3ccccc3)nc21
inactive: [1] 23.3 µM | [2] > 100 µM | [3] 24.1 µM | [4] 22 µM | [5] > 100 µM | [6] 19.3 µM | [7] 26.2 µM | [8] 76.2 µM | [9] 86.9 µM | [10] 27.4 µM | [11] > 10 µM | [12] 22.3 µM | [13] 16.5 µM | [14] 36.7 µM | [15] 29.8 µM | [17] 25.9 µM | [18] 90.4 µM | [19] > 100 µM
